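Cells were grown in 96-well plates and exposed to each compound for 48 hours at five concentrations; endpoints were interpolated linearly between bracketing concentrations, or set to the highest concentration if not reached. TGI: concentration producing complete growth inhibition.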
Legend:
Experiment in all cases: DTP human tumour cell line panel, 48 h
786-0 renal = system: 786-0 renal
DLD-1 colon = system: DLD-1 colon
HOP-92 NSCLC = system: HOP-92 NSCLC
IGROV1 ovarian = system: IGROV1 ovarian
M19-MEL melanoma = system: M19-MEL melanoma
NCI-H522 lung = system: NCI-H522 lung
SK-MEL-2 melanoma = system: SK-MEL-2 melanoma
SNB-19 CNS = system: SNB-19 CNS
TK-10 renal = system: TK-10 renal

Row | Compound | TGI (786-0 renal) | TGI (DLD-1 colon) | TGI (HOP-92 NSCLC) | TGI (IGROV1 ovarian) | TGI (M19-MEL melanoma) | TGI (NCI-H522 lung) | TGI (SK-MEL-2 melanoma) | TGI (SNB-19 CNS) | TGI (TK-10 renal)
1 | CC(=O)NC1=C(C)C(=O)c2c(nc3n2CCC3O)C1=O (centres undefined) | > 100 µM | > 100 µM | 33.3 µM | > 89.7 µM | > 57.1 µM | 68.2 µM | 42.8 µM | > 100 µM | > 100 µM
2 | Cc1cc2c(cc1C)[n+](=O)c(C(=O)/C=C/c1ccc(Cl)cc1)c(C)n2[O-] | 34.4 µM | 70.9 µM | > 100 µM | 63.7 µM | > 100 µM | 50.4 µM | 79.1 µM | > 100 µM | 58.5 µM
3 | CC(C)COC(=O)N1N=NC2C3OC(CC3=O)C21 (centres undefined) | > 100 µM | > 100 µM | > 100 µM | > 31.6 µM | > 100 µM | > 100 µM | > 100 µM | > 100 µM | > 100 µM
4 | CCNc1c(C(=O)N(CC)CC)c(=O)[nH]c2ncccc12 | > 100 µM | > 100 µM | > 100 µM | > 100 µM | > 100 µM | > 100 µM | > 100 µM | > 100 µM | > 100 µM
5 | CS(=O)(=O)OCCN1CCN(C(=O)c2cccc3c(Nc4ccc(S(N)(=O)=O)cc4)c4ccccc4nc23)CC1 | > 100 µM | > 65.3 µM | > 100 µM | > 100 µM | > 100 µM | > 100 µM | > 100 µM | > 72.6 µM | > 100 µM
6 | CC1=C(C)CC2(SC1)C(=O)c1ccccc1C2=O | > 100 µM | > 100 µM | > 100 µM | > 100 µM | > 100 µM | > 100 µM | > 100 µM | > 100 µM | > 100 µM
